SMILES strings stand for the structures.

This experiment has as its system HIV in the HTLV-1 transformed cell line MT-4. Nature of the experiment: organism not typed. The class given is cell-based. The conditions noted are these: MT-4 cells, luciferase/cell titer glo readout after 96 hours, 10 point dose response.

By IC50 is commonly meant the midpoint of a concentration-inhibition curve. A higher IC50 goes with a need for much substance. Take `Cc1c(-c2c(C)c3c(c(C)c2[C@H](OC(C)(C)C)C(=O)O)CN(C(=O)c2cc(F)c(Cl)c(F)c2)C3)cc(F)c2c1CCCO2` (atropisomer, axis not shown; (M)) [Example 175, (S)-2-(tert-butoxy)-2-((M)-2-(4-chloro-3,5-difluorobenzoyl)-6-(8-fluoro-5-methylchroman-6-yl)-4,7-dimethylisoindolin-5-yl)acetic acid]: the IC50 (MT4, 96 h) was found to be 5 nM. That is a single-digit nanomolar value.

Molecule `Cc1c(-c2c(C)c3c(c(C)c2[C@H](OC(C)(C)C)C(=O)O)CN(C(=O)c2cccc(F)c2)C3)ccc2c1NCCO2` [Example 303, (2S)-2-(tert-butoxy)-2-(2-(3-fluorobenzoyl)-4,7-dimethyl-6-(5-methyl-3,4-dihydro-2H-benzo[b][1,4]oxazin-6-yl)isoindolin-5-yl)acetic acid] returned an IC50 of 5 nM.

Turning to `COc1cccc(C(=O)N2Cc3c(C)c(-c4cc(F)c5c(c4C)CCCO5)c([C@H](OC(C)(C)C)C(=O)O)c(C)c3C2)c1` (atropisomer, axis not shown; (M)) [Example 159, (S)-2-(tert-butoxy)-2-(6-((M)-8-fluoro-5-methylchroman-6-yl)-2-(3-methoxybenzoyl)-4,7-dimethylisoindolin-5-yl)acetic acid], the IC50 (MT4, 96 h) is 2 nM.

Molecule `Cc1ccc(F)cc1C(=O)N1Cc2c(C)c(-c3cc(F)c4c(c3C)CCCO4)c([C@H](OC(C)(C)C)C(=O)O)c(C)c2C1` [Example 136, (S)-2-(tert-butoxy)-2-((R)-2-(5-fluoro-2-methylbenzoyl)-6-(8-fluoro-5-methylchroman-6-yl)-4,7-dimethylisoindolin-5-yl)acetic acid] came in with an IC50 (MT4, 96 h) of 2 nM.

The record behind these values is US10112899B2 (ViiV HEALTHCARE UK LIMITED, priority 2014, dated 2018).
